The values that follow come from US11236120B2, “Azithromycin derivatives with epithelial barrier enhancement properties” (EpiEndo Pharmaceuticals ehf, priority 2015, dated 2022).

Series [1] can be described thus: Stability in mouse plasma. The series is classed as in vitro ADME. The note with it: room temperature. How it is done: (§1) Stability in Mouse and Human Plasma
(§2) The stability of the compounds in mouse and human plasma was performed using protein precipitation as sample clean-up and HPLC-MS detection. The plasma stability studies of the compounds was performed at room temperature for up to 4 hours. A stock solution of […] in DMSO was prepared for each compound. For the plasma stability samples, 100 μL of the stock solution was diluted with 3.9 mL of either mouse or human plasma to a final concentration of […]. The plasma was left to equilibrate for 10 minutes at room temperature before the first analysis. For each analyzed time point ([…]) a 100 μL aliquot of the plasma was removed and protein precipitation (PPT) was performed on the aliquot by adding 900 μL of (ACN:DMSO) 95:5. The precipitated sample was shaken for 60 seconds and then centrifuged. The supernatant was transferred to an HPLC vial and analyzed using HPLC-MS. The chromatographic signal area of the samples at the different time points were then compared against each other, by setting the initial analysis at t=0 min as 100% and then calculating the %-value for each subsequent time point.
(§3) The chromatographic separation was performed on a Waters HPLC-MS system using a 50×2.1 mm×Bridge C18 column and a gradient elution of Water with 0.1% formic acid and acetonitrile with 0.1% formic acid. The analytes were analyzed in positive electro-spray mode using the (M+H)^+ in single ion recording.

A short description of series [2]: Solubility in 10 mM phosphate buffer (pH 7.4). The series is classed as physicochemical. The note with it: pH 7.4, aqueous buffer, kinetic from dmso stock, 60 minutes at room temperature, filtered, read-out: MTS Solubility in Buffer (pH 7.4). How it is done: Solubility in 10 mM Phosphate Buffer (pH 7.4)
The solubility sample testing of the compounds was performed by in phosphate buffer at pH 7.4 and using HPLC-MS detection. A stock solution of […] in DMSO was prepared for each compound. For the solubility test sample, 100 μL of the stock solution was diluted with 3.9 mL of a 10 mM phosphate buffer at […] to a final concentration of […]. The buffer solution was left to stand for 60 minutes at room temperature and then filtered. The filtrate was analyzed against two calibration points of the same analyte prepared at […] using HPLC-MS. These calibration points were prepared from the same stock solution as the solubility sample by diluting it with DMSO:H2O (1:1) 1:40 and then again 1:10. The chromatographic signal area of the analyte in the solubility sample was then compared to the chromatographic signal area of the two calibration samples.
as §3

The nature of series [3]: Stability in human plasma. The note with it: room temperature. The series is classed as in vitro ADME. How it is done: as §1, §2, §3

≈ marks a conversion by molar mass, not a printed value.

For `CC[C@H]1OC(=O)[C@H](C)[C@@H](O)[C@H](C)[C@@H](O[C@@H]2O[C@H](C)C[C@H](N(C)C(=O)Cc3ccccc3)[C@H]2O)[C@](C)(O)C[C@@H](C)CN(C)[C@H](C)[C@@H](O)[C@]1(C)O` [Example 29, N-[(2S,3R,4S,6R)-2-[[(2R,3S,4R,5R,8R,10R,11R,12S,13S,14R)-2-ethyl-3,4,10,13-tetrahydroxy-3,5,6,8,10,12,14-heptamethyl-15-oxo-1-oxa-6-azacyclopentadec-11-yl]oxy]-3-hydroxy-6-methyl-tetrahydropyran-4-yl]-N-methyl-2-phenyl-acetamide], the “Degradation in Mouse Plasma at RT” value in series [1] is given as “Stable”. In series [2], the solubility at 60 min is 0.77 µM (≈ 0.535 µg/mL). The “Degradation in Human Plasma at RT” value in series [3] was determined as 2 % per hour.

For the compound `CC[C@H]1OC(=O)[C@H](C)[C@@H](O)[C@H](C)[C@@H](O[C@@H]2O[C@H](C)C[C@H](N(C)C)[C@H]2OC(=O)CCC(=O)O)[C@](C)(O)C[C@@H](C)CN(C)[C@H](C)[C@@H](O)[C@]1(C)O` [Example 17, 4-[(2S,3R,4S,6R)-4-(dimethylamino)-2-[[(2R,3S,4R,5R,8R,10R,11R,12S,13S,14R)-2-ethyl-3,4,10,13-tetrahydroxy-3,5,6,8,10,12,14-heptamethyl-15-oxo-1-oxa-6-azacyclopentadec-11-yl]oxy]-6-methyl-tetrahydropyran-3-yl]oxy-4-oxo-butanoic acid], the “Degradation in Mouse Plasma at RT” value in series [1] is recorded as “ca. 20% per hour”. For the same compound, the solubility at 60 min in series [2] amounted to 0.66 µM (≈ 0.456 µg/mL). Moreover, the “Degradation in Human Plasma at RT” value in series [3] was 20 % per hour.

For `CC[C@H]1OC(=O)[C@H](C)[C@@H](O)[C@H](C)[C@@H](O[C@@H]2O[C@H](C)C[C@H](NC)[C@H]2O)[C@](C)(O)C[C@@H](C)CN(C)[C@H](C)[C@@H](O)[C@]1(C)O` [Example 30, (2R,3S,4R,5R,8R,10R,11R,12S,13S,14R)-2-ethyl-3,4,10,13-tetrahydroxy-11-[(2S,3R,4S,6R)-3-hydroxy-6-methyl-4-(methylamino)tetrahydropyran-2-yl]oxy-3,5,6,8,10,12,14-heptamethyl-1-oxa-6-azacyclopentadecan-15-one], the “Degradation in Mouse Plasma at RT” value in series [1] is “Stable”. The solubility at 60 min in series [2] amounted to 0.49 µM (≈ 0.283 µg/mL). Besides, in series [3], the “Degradation in Human Plasma at RT” value is on record as “Stable”.

On to `CC[C@H]1OC(=O)[C@H](C)[C@@H](O)[C@H](C)[C@@H](O[C@@H]2O[C@H](C)C[C@H](N(C)C(=O)CCC(=O)O)[C@H]2O)[C@](C)(O)C[C@@H](C)CN(C)[C@H](C)[C@@H](O)[C@]1(C)O` [Example 18, 4-[[(2S,3R,4S,6R)-2-[[(2R,3S,4R,5R,8R,10R,11R,12S,13S,14R)-2-ethyl-3,4,10,13-tetrahydroxy-3,5,6,8,10,12,14-heptamethyl-15-oxo-1-oxa-6-azacyclopentadec-11-yl]oxy]-3-hydroxy-6-methyl-tetrahydropyran-4-yl]-methyl-amino]-4-oxo-butanoic acid], for which the solubility at 60 min in series [2] was determined as 0.4 µM (≈ 0.271 µg/mL). In series [3], the “Degradation in Human Plasma at RT” value is reported as “Stable”.

Consider `CC[C@H]1OC(=O)[C@H](C)[C@@H](O)[C@H](C)[C@@H](O[C@@H]2O[C@H](C)C[C@H](N(C)C)[C@H]2OC(=O)c2ccc3ccccc3c2)[C@](C)(O)C[C@@H](C)CN(C)[C@H](C)[C@@H](O)[C@]1(C)O` [Example 24, [(2S,3R,4S,6R)-4-(dimethylamino)-2-[[(2R,3S,4R,5R,8R,10R,11R,12S,13S,14R)-2-ethyl-3,4,10,13-tetrahydroxy-3,5,6,8,10,12,14-heptamethyl-15-oxo-1-oxa-6-azacyclopentadec-11-yl]oxy]-6-methyl-tetrahydropyran-3-yl]naphthalene-2-carboxylate], for which the “Degradation in Mouse Plasma at RT” value in series [1] is recorded as “Stable”. Besides, in series [2], the solubility at 60 min came out at 2.4 µM (≈ 1.79 µg/mL). Moreover, the “Degradation in Human Plasma at RT” value in series [3] is “Stable”.

Regarding `CC[C@H]1OC(=O)[C@H](C)[C@@H](O)[C@H](C)[C@@H](O[C@@H]2O[C@H](C)C[C@H](N(C)C(=O)CCOc3ccccc3)[C@H]2O)[C@](C)(O)C[C@@H](C)CN(C)[C@H](C)[C@@H](O)[C@]1(C)O` [Example 28, N-[(2S,3R,4S,6R)-2-[[(2R,3S,4R,5R,8R,10R,11R,12S,13S,14R)-2-ethyl-3,4,10,13-tetrahydroxy-3,5,6,8,10,12,14-heptamethyl-15-oxo-1-oxa-6-azacyclopentadec-11-yl]oxy]-3-hydroxy-6-methyl-tetrahydropyran-4-yl]-N-methyl-3-phenoxy-propanamide], the “Degradation in Mouse Plasma at RT” value in series [1] was “Stable”. Besides, in series [2], the solubility at 60 min was determined as 1.42 µM (≈ 1.03 µg/mL). Further, in series [3], the “Degradation in Human Plasma at RT” value is reported as “Stable”.

Consider `CC[C@H]1OC(=O)[C@H](C)[C@@H](O)[C@H](C)[C@@H](O[C@@H]2O[C@H](C)C[C@H](N(C)C(=O)COCc3ccccc3)[C@H]2O)[C@](C)(O)C[C@@H](C)CN(C)[C@H](C)[C@@H](O)[C@]1(C)O` [Example 26, 2-benzyloxy-N-[(2S,3R,4S,6R)-2-[[(2R,3S,4R,5R,8R,10R,11R,12S,13S,14R)-2-ethyl-3,4,10,13-tetrahydroxy-3,5,6,8,10,12,14-heptamethyl-15-oxo-1-oxa-6-azacyclopentadec-11-yl]oxy]-3-hydroxy-6-methyl-tetrahydropyran-4-yl]-N-methyl-acetamide], for which the “Degradation in Mouse Plasma at RT” value in series [1] stood at 4 % per hour. Further, the solubility at 60 min in series [2] amounted to 0.3 µM (≈ 0.217 µg/mL). Further, the “Degradation in Human Plasma at RT” value in series [3] is “Stable”.

As to `CC[C@H]1OC(=O)[C@H](C)[C@@H](O)[C@H](C)[C@@H](O[C@@H]2O[C@H](C)C[C@H](N(C)C(=O)c3ccccc3)[C@H]2O)[C@](C)(O)C[C@@H](C)CN(C)[C@H](C)[C@@H](O)[C@]1(C)O` [Example 7, N-[(2S,3R,4S,6R)-2-[[(2R,3S,4R,5R,8R,10R,11R,12S,13S,14R)-2-ethyl-3,4,10,13-tetrahydroxy-3,5,6,8,10,12,14-heptamethyl-15-oxo-1-oxa-6-azacyclopentadec-11-yl]oxy]-3-hydroxy-6-methyl-tetrahydropyran-4-yl]-N-methyl-benzamide], in series [2], the solubility at 60 min came to 0.23 µM (≈ 0.157 µg/mL). For the same compound, in series [3], the “Degradation in Human Plasma at RT” value is on record as “Stable”.

As to `CC[C@H]1OC(=O)[C@H](C)[C@@H](O)[C@H](C)[C@@H](O[C@@H]2O[C@H](C)C[C@H](N(C)C(=O)CNC(=O)OCc3ccccc3)[C@H]2O)[C@](C)(O)C[C@@H](C)CN(C)[C@H](C)[C@@H](O)[C@]1(C)O` [Example 27, Benzyl N-[2-[[(2S,3R,4S,6R)-2-[[(2R,3S,4R,5R,8R,10R,11R,12S,13S,14R)-2-ethyl-3,4,10,13-tetrahydroxy-3,5,6,8,10,12,14-heptamethyl-15-oxo-1-oxa-6-azacyclopentadec-11-yl]oxy]-3-hydroxy-6-methyl-tetrahydropyran-4-yl]-methyl-amino]-2-oxo-ethyl]carbamate], the “Degradation in Mouse Plasma at RT” value in series [1] was found to be 3 % per hour. Further, in series [2], the solubility at 60 min was determined as 0.3 µM (≈ 0.23 µg/mL). In addition, in series [3], the “Degradation in Human Plasma at RT” value is “Stable”.

As to `CC[C@H]1OC(=O)[C@H](C)[C@@H](O)[C@H](C)[C@@H](O[C@@H]2O[C@H](C)C[C@H](N(C)C)[C@H]2OC(=O)c2ccc(-c3ccc(S(C)(=O)=O)cc3)cc2)[C@](C)(O)C[C@@H](C)CN(C)[C@H](C)[C@@H](O)[C@]1(C)O` [Example 12, [(2S,3R,4S,6R)-4-(dimethylamino)-2-[[(2R,3S,4R,5R,8R,10R,11R,12S,13S,14R)-2-ethyl-3,4,10,13-tetrahydroxy-3,5,6,8,10,12,14-heptamethyl-15-oxo-1-oxa-6-azacyclopentadec-11-yl]oxy]-6-methyl-tetrahydropyran-3-yl]4-(4-methylsulfonylphenyl) benzoate], the “Degradation in Mouse Plasma at RT” value in series [1] is 2 % per hour. Moreover, the solubility at 60 min in series [2] stood at 0.3 µM (≈ 0.255 µg/mL). The “Degradation in Human Plasma at RT” value in series [3] is 2 % per hour.

On to `CCc1ccc(C(=O)O[C@H]2[C@H](O[C@@H]3[C@@H](C)[C@H](O)[C@@H](C)C(=O)O[C@H](CC)[C@@](C)(O)[C@H](O)[C@@H](C)N(C)C[C@H](C)C[C@@]3(C)O)O[C@H](C)C[C@@H]2N(C)C)cc1` [Example 22, [(2S,3R,4S,6R)-4-(dimethylamino)-2-[[(2R,3S,4R,5R,8R,10R,11R,12S,13S,14R)-2-ethyl-3,4,10,13-tetrahydroxy-3,5,6,8,10,12,14-heptamethyl-15-oxo-1-oxa-6-azacyclopentadec-11-yl]oxy]-6-methyl-tetrahydropyran-3-yl]4-ethylbenzoate], for which, in series [1], the “Degradation in Mouse Plasma at RT” value is recorded as “Stable”. Besides, in series [2], the solubility at 60 min amounted to 1.43 µM (≈ 1.03 µg/mL). For the same compound, in series [3], the “Degradation in Human Plasma at RT” value is “Stable”.
